Laboratory results: US11591341B2 (ALIGOS THERAPEUTICS, INC., priority 2019, dated 2023)

System: HBV
Experiment: HBV-DNA Antiviral Assay Using HepG2.117 Cells (intracellular HBV DNA by qPCR)
Type: cell-based, hepatitis B virus (genotype D)
Conditions: Hepatitis B virus, HepG2.117
How it was run: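 Endpoint: qPCR copy number of intracellular HBV DNA after 3-day compound exposure, with inhibition set relative to the 2% DMSO control. The cells were doxycycline-free HepG2.117 carrying a Tet-off genotype D genome, dosed at nine 4-fold dilutions. A duplicate plate gave ATP-based viability (CC50).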

SMILES: COc1ccc(-n2c(C(=O)NCc3ccccc3)c3n(c2=O)CCN(C(=O)c2ccc(Cl)c(Cl)c2)C3)c(F)c1 [Example 79, N-benzyl-7-(3,4-dichlorobenzoyl)-2-(2-fluoro-4-methoxy-phenyl)-3-oxo-6,8-dihydro-5H-imidazo[1,5-a]pyrazine-1-carboxamide]
- EC50: 0.5 to 5 µM

SMILES: COc1ccc(-n2c(C(=O)NCc3ccccc3)c3n(c2=O)CCN(C(=O)c2ccc(Cl)c(Cl)c2)C3)c(C#N)c1 [Example 80, N-benzyl-2-(2-cyano-4-methoxy-phenyl)-7-(3,4-dichlorobenzoyl)-3-oxo-6,8-dihydro-5H-imidazo[1,5-a]pyrazine-1-carboxamide]
- EC50: > 5 µM

SMILES: COc1ccc(-n2c(C(=O)Nc3ccccc3)c3n(c2=O)CCN(C(=O)c2ccc(Cl)c(Cl)c2)C3)cc1 [Example 83, 7-(3,4-dichlorobenzoyl)-2-(4-methoxyphenyl)-3-oxo-N-phenyl-6,8-dihydro-5H-imidazo[1,5-a]pyrazine-1-carboxamide]
- EC50: > 5 µM

SMILES: COc1ccc(-n2c(C(=O)NCc3ccc(C#N)cc3)c3n(c2=O)CCN(C(=O)c2ccc(Cl)c(Cl)c2)C3)cc1 [Example 84, N-[(4-cyanophenyl)methyl]-7-(3,4-dichlorobenzoyl)-2-(4-methoxyphenyl)-3-oxo-6,8-dihydro-5H-imidazo[1,5-a]pyrazine-1-carboxamide]
- EC50: > 5 µM

SMILES: COc1ccc(-n2c(C(=O)NCc3ccc(OC)cc3Cl)c3n(c2=O)CCN(C(=O)c2ccc(Cl)c(Cl)c2)C3)cc1 [Example 85, N-[(2-chloro-4-methoxy-phenyl)methyl]-7-(3,4-dichlorobenzoyl)-2-(4-methoxyphenyl)-3-oxo-6,8-dihydro-5H-imidazo[1,5-a]pyrazine-1-carboxamide]
- EC50: 0.5 to 5 µM

SMILES: COc1ccc(-n2c(-c3ncc(Cc4ccccc4)o3)c3n(c2=O)CCN(C(=O)c2ccc(Br)c(Cl)c2)C3)cc1 [Example 86]
- EC50: 0.5 to 5 µM

SMILES: COc1ccc(-n2c(C(=O)NCc3ccccc3)c3n(c2=O)CCN(C(=O)c2ccc(Cl)c(Cl)c2)C3)c(C)c1 [Example 87, N-benzyl-7-(3,4-dichlorobenzoyl)-2-(4-methoxy-2-methyl-phenyl)-3-oxo-6,8-dihydro-5H-imidazo[1,5-a]pyrazine-1-carboxamide]
- EC50: > 5 µM

SMILES: O=C(NCc1ccccc1)c1c2n(c(=O)n1-c1ccc3c(c1)OCO3)CCN(C(=O)c1ccc(Cl)c(Cl)c1)C2 [Example 88, 2-(1,3-benzodioxol-5-yl)-N-benzyl-7-(3,4-dichlorobenzoyl)-3-oxo-6,8-dihydro-5H-imidazo[1,5-a]pyrazine-1-carboxamide]
- EC50: 0.5 to 5 µM

SMILES: COc1ccc(-n2c(C(=O)NCc3ccc(OC)c(C)c3)c3n(c2=O)CCN(C(=O)c2ccc(Cl)c(Cl)c2)C3)cc1 [Example 89, 7-(3,4-dichlorobenzoyl)-N-[(4-methoxy-3-methyl-phenyl)methyl]-2-(4-methoxyphenyl)-3-oxo-6,8-dihydro-5H-imidazo[1,5-a]pyrazine-1-carboxamide]
- EC50: 0.5 to 5 µM

SMILES: COc1ccc(-n2c(C(=O)NCc3ccc(C)c(OC)c3)c3n(c2=O)CCN(C(=O)c2ccc(Cl)c(Cl)c2)C3)cc1 [Example 90, 7-(3,4-dichlorobenzoyl)-N-[(3-methoxy-4-methyl-phenyl)methyl]-2-(4-methoxyphenyl)-3-oxo-6,8-dihydro-5H-imidazo[1,5-a]pyrazine-1-carboxamide]
- EC50: 0.5 to 5 µM

SMILES: COc1ccc(-n2c(C(=O)NCc3ccc4c(c3)OCCO4)c3n(c2=O)CCN(C(=O)c2ccc(Cl)c(Cl)c2)C3)cc1 [Example 91, 7-(3,4-dichlorobenzoyl)-N-(2,3-dihydro-1,4-benzodioxin-6-ylmethyl)-2-(4-methoxyphenyl)-3-oxo-6,8-dihydro-5H-imidazo[1,5-a]pyrazine-1-carboxamide]
- EC50: 0.5 to 5 µM

SMILES: COc1ccc(-n2c(C(=O)NCc3ccc4ncccc4c3)c3n(c2=O)CCN(C(=O)c2ccc(Cl)c(Cl)c2)C3)cc1 [Example 92, 7-(3,4-dichlorobenzoyl)-2-(4-methoxyphenyl)-3-oxo-N-(6-quinolylmethyl)-6,8-dihydro-5H-imidazo[1,5-a]pyrazine-1-carboxamide]
- EC50: 0.5 to 5 µM
